Our source for the IC50 values is US9139587B2, “N1-pyrazolospiroketone acetyl-CoA carboxylase inhibitors” (Pfizer Inc., priority 2009, dated 2015).

Test [1] has as its target T1, recombinant human ACC1 (rhACC1) (Homo sapiens, UniProt Q13085, DEL44-44).
T1 construct: recombinant baculovirus containing full length human ACC1 cDNA; made in house; host or cells: SF9 insect cells (baculovirus)
In words: recombinant hACC1 Transcreener assay (direct inhibition of ACC1 activity). In kind it is biochemical. Conditions: Transcreener ADP detection FP assay, 50 μM ATP, 30 μM acetyl-CoA, 120 min at 25° C. Here is the method:
For example direct inhibition of ACC activity, for the compound of Formula (1) was determined using preparations of recombinant human ACC1 (rhACC1) and recombinant human ACC2 (rhACC2). Representative sequences of the recombinant human ACC1 and ACC2 that can be used in the assay are provided in FIG. 1 (SEQ ID NO. 1) and FIG. 2 (SEQ. ID NO. 2), respectively. Preparation of rhACC1. Two liters of SF9 cells, infected with recombinant baculovirus containing full length human ACC1 cDNA, were suspended in ice-cold lysis buffer (25 mM Tris, pH 7.5; 150 mM NaCl; 10% glycerol; 5 mM imidazole (EMD Bioscience; Gibbstown, N.J.); 2 mM TCEP (BioVectra; Charlottetown, Canada); Benzonase nuclease (10000 U/100 g cell paste; Novagen; Madison, Wis.); EDTA-free protease inhibitor cocktail (1 tab/50 mL; Roche Diagnostics; Mannheim, Germany). Cells were lysed by 3 cycles of freeze-thaw and centrifuged at 40,000×g for 40 minutes (4° C.). Supernatant was directly loaded onto a HisTrap FF crude column (GE Healthcare; Piscataway, N.J.) and eluted with an imidazole gradient up to 0.5 M over 20 column volumes (CV). ACC1-containing fractions were pooled and diluted 1:5 with 25 mM Tris, pH 7.5, 2 mM TCEP, 10% glycerol and direct loaded onto a CaptoQ (GE Healthcare) column and eluted with an NaCl gradient up to 1 M over 20 CV's. Phosphate groups were removed from purified ACC1 by incubation with lambda phosphatase (100 U/10 μM target protein; New England Biolabs; Beverly, Mass.) for 14 hours at 4° C.; okadaic acid was added (1 μM final concentration; Roche Diagnostics) to inhibit the phosphatase. Purified ACC1 was exchanged into 25 mM Tris, pH 7.5, 2 mM TCEP, 10% glycerol, 0.5 M NaCl by 6 hour dialysis at 4° C. Aliquots were prepared and frozen at −80° C. […] The final conditions for the assay were 50 mM HEPES, pH 7.2, 10 mM MgCl2, 7.5 mM tripotassium citrate, 2 mM DTT, 0.1 mg/mL BSA, 30 μM acetyl-CoA, 50 μM ATP, and 10 mM KHCO3 Typically, a 10 μl reaction was run for 120 min at 25° C., and 10 μl of Transcreener stop and detect buffer was added and the combination incubated at room temp for an additional 1 hour. The data was acquired on a Envision Fluorescence reader (Perkinelmer) using a 620 excitation Cy5 FP general dual mirror, 620 excitation Cy5 FP filter, 688 emission (S) and a 688 (P) emission filter.

The target of test [2] is T2, recombinant human ACC2 (rhACC2) (Homo sapiens, UniProt O00763, V2141I).
T2 construct: a full length Cytomax clone of ACC2 was purchased from Cambridge Bioscience Limited; made in house; host or cells: CHO cells (tetracycline-induced, pcDNA5 FRT TO-TOPO)
T2 sequence (O00763 whole entry V2141I): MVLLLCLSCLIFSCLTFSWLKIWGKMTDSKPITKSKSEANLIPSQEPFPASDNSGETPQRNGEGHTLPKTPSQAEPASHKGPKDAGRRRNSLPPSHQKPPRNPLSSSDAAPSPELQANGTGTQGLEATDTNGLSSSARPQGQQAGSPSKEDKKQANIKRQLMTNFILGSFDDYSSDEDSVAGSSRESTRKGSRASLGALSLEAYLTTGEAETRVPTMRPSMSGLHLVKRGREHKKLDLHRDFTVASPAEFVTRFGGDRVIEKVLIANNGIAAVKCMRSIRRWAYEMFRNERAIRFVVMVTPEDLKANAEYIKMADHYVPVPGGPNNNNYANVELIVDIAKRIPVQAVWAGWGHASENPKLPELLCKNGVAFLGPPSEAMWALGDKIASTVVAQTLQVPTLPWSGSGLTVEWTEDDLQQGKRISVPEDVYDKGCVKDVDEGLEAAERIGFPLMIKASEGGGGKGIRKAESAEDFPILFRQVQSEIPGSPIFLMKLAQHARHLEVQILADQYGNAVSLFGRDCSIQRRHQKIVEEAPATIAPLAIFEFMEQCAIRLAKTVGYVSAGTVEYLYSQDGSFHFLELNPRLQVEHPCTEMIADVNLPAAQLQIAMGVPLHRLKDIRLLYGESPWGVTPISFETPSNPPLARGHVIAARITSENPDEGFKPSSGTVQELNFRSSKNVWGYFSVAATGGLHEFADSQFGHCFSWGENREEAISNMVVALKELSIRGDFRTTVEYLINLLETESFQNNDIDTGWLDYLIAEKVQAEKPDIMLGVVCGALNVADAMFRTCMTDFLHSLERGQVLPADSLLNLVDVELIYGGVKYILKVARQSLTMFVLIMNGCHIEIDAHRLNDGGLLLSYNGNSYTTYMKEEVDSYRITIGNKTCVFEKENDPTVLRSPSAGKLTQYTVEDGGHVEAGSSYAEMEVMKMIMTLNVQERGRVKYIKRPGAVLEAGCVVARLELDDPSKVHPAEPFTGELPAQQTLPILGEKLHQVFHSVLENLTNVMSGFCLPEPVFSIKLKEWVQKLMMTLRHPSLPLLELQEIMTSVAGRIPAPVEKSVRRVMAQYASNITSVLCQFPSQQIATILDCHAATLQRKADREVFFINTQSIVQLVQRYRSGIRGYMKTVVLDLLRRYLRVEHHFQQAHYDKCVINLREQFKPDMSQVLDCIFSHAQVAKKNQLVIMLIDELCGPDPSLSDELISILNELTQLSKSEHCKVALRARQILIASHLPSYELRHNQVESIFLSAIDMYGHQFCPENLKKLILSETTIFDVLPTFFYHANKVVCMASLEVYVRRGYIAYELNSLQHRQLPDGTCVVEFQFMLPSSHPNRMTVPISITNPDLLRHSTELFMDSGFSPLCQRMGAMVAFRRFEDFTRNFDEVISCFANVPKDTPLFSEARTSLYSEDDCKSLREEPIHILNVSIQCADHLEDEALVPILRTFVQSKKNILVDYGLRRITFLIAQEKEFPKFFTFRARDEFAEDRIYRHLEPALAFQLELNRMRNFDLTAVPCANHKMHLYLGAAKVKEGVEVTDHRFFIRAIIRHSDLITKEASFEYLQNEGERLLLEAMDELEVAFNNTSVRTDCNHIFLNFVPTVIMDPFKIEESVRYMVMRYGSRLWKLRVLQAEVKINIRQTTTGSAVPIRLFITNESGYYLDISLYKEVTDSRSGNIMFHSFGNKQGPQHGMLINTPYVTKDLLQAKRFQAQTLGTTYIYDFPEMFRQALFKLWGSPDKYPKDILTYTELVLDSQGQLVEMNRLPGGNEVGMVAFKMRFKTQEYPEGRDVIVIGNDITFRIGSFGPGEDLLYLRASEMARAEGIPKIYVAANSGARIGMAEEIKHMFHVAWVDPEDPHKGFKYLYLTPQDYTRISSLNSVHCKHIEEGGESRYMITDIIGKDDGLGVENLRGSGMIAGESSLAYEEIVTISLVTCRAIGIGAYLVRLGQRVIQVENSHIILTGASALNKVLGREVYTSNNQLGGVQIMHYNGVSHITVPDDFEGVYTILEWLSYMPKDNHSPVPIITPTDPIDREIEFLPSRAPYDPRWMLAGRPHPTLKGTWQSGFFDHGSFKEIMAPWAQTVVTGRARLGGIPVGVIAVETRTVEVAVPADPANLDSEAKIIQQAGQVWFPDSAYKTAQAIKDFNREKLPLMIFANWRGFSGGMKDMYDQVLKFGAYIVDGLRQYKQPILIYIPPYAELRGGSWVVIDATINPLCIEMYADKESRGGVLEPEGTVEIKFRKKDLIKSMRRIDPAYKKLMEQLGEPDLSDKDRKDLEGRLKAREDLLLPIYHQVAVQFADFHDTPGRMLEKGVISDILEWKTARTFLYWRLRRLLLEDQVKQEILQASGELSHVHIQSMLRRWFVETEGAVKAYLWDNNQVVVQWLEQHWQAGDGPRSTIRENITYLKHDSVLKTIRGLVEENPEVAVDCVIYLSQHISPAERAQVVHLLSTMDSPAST
Kind of test: recombinant hACC2 Transcreener assay (direct inhibition of ACC2 activity). The settings on record: Transcreener ADP detection FP assay, 50 μM ATP, 30 μM acetyl-CoA, 50 min at 25° C. In kind it is biochemical. The procedure: For example direct inhibition of ACC activity, for the compound of Formula (1) was determined using preparations of recombinant human ACC1 (rhACC1) and recombinant human ACC2 (rhACC2). Representative sequences of the recombinant human ACC1 and ACC2 that can be used in the assay are provided in FIG. 1 (SEQ ID NO. 1) and FIG. 2 (SEQ. ID NO. 2), respectively.
[3] Preparation of rhACC2. Human ACC2 inhibition was measured using purified recombinant human ACC2 (hrACC2). Briefly, a full length Cytomax clone of ACC2 was purchased from Cambridge Bioscience Limited and was sequenced and subcloned into PcDNA5 FRT TO-TOPO (Invitrogen, Carlsbad, Calif.). The ACC2 was expressed in CHO cells by tetracycline induction and harvested in 5 liters of DMEM/F12 with glutamine, biotin, hygromycin and blasticidin with 1 μg/mL tetracycline (Invitrogen, Carlsbad, Calif.). The conditioned medium containing ACC2 was then applied to a Softlink Soft Release Avidin column (Promega, Madison, Wis.) and eluted with 5 mM biotin. 4 mgs of ACC2 were eluted at a concentration of 0.05 mg/mL (determined by A280) with an estimated purity of 95% ([…]). The purified ACC2 was dialyzed in 50 mM Tris, 200 mM NaCl, 4 mM DTT, 2 mM EDTA, and 5% glycerol. The pooled protein was frozen and stored at −80° C., with no loss of activity upon thawing. For measurement of ACC2 activity and assessment of ACC2 inhibition, test compounds were dissolved in DMSO and added to the rhACC2 enzyme as a 5× stock with a final DMSO concentration of 1%.
[4] Measurement of human ACC2 inhibition. hACC2 was assayed in a Costar #3676 (Costar, Cambridge, Mass.) 384-well plate using the Transcreener ADP detection FP assay kit (Bellbrook Labs, Madison, Wisconsin) using the manufacturer's recommended conditions for a 50 uM ATP reaction. The final conditions for the assay were 50 mM HEPES, pH 7.2, 5 mM MgCl2, 5 mM tripotassium citrate, 2 mM DTT, 0.1 mg/mL BSA, 30 μM acetyl-CoA, 50 μM ATP, and 8 mM KHCO3 Typically, a 10 μl reaction was run for 50 min at 25° C., and 10 μl of Transcreener stop and detect buffer was added and the combination incubated at room temp for an additional 1 hour. The data was acquired on an Envision Fluorescence reader (Perkinelmer) using a 620 excitation Cy5 FP general dual mirror, 620 excitation Cy5 FP filter, 688 emission (S) and a 688 (P) emission filter.

Usually IC50 stands for the concentration needed to halve the response being measured.

As for `CC(C)n1ncc2c1C(=O)C(C)(C)C1(CCN(C(=O)c3ccc4[nH]ncc4c3)CC1)C2` [Example 6A-1, 1′-(1H-indazole-5-carbonyl)-1-isopropyl-6,6-dimethyl-4,6-dihydrospiro[indazole-5,4′-piperidin]-7(1H)-one], the values for the 50% inhibitory concentration (IC50) in test [1] and in test [2] were 1530 nM and 373 nM, respectively.

In the case of `Cc1ccn2cc(C(=O)N3CCC4(CC3)CC(=O)c3c(cnn3C(C)(C)C)C4)nc2c1` [Example 11A-27], the values for the half-maximal inhibitory concentration (IC50) in test [1] and in test [2] were 584 nM and 309 nM, respectively.

In the case of `CC(C)(C)n1ncc2c1C(=O)CC1(CCN(C(=O)c3ccc4c(=O)[nH]ccc4c3)CC1)C2` [Example 2A-22], the results for the IC50 in test [1] and in test [2] were 1890 nM and 334 nM, respectively.

As for `CC(C)n1ncc2c1C(=O)CC1(CCN(C(=O)c3cc4[nH]ccn4n3)CC1)C2` [Example 2A-67], the IC50 worked out at 799 nM in test [1] and 653 nM in test [2].

`Cc1cc(C(=O)N2CCC3(CC2)CC(=O)c2c(cnn2C(C)(C)C)C3)c(N)c(C)n1` [Example 11A-38]: the IC50 amounted to 2170 nM in test [1] and 1030 nM in test [2].

As to `CC(C)n1ncc2c1C(=O)CC1(CCN(C(=O)c3cccc(-c4ncc[nH]4)c3)CC1)C2` [Example 11A-41], the IC50 is 122 nM in test [1] and 30.1 nM in test [2].

As for `Cc1cc(C(=O)N2CCC3(CC2)CC(=O)c2c(cnn2CC2CCCO2)C3)ccc1Cl` (centres unmarked) [Example 2A-2], the IC50 is 8300 nM in test [1] and 3570 nM in test [2].

As to `CC(C)n1ncc2c1C(=O)CC1(CCN(C(=O)c3cccnc3C(N)=O)CC1)C2` [Example 11A-10], the IC50 in test [1] came out at 6670 nM; in test [2] it was 789 nM.

With `CC(C)(C)n1ncc2c1C(=O)CC1(CCN(C(=O)c3cnc4[nH]cnc4c3)CC1)C2` [Example 11A-39], the IC50 in test [1] amounted to 69 nM; in test [2] it was 81.3 nM.

With `CNc1nc(C)ccc1C(=O)N1CCC2(CC1)CC(=O)c1c(cnn1C(C)C)C2` [Example 11A-46], the IC50 in test [1] stood at 391 nM; in test [2], 97.1 nM.

Turning to `Cc1nc2c(F)cc(C(=O)N3CCC4(CC3)CC(=O)c3c(cnn3C(C)(C)C)C4)cc2[nH]1` [Example 2A-55], the IC50 in test [1] stood at 266 nM; in test [2], 105 nM.

As for `CC(C)n1ncc2c1C(=O)CC1(CCN(C(=O)c3ccc4c(c3)ncn4C)CC1)C2` [Example 11A-55], the figures for the IC50 in test [1] and in test [2] were 213 nM and 60.4 nM, respectively.

As to `CC(C)(C)n1ncc2c1C(=O)CC1(CCN(C(=O)c3cc(Cl)c4[nH]c(=O)[nH]c4c3)CC1)C2` [Example 2A-56], the results for the 50% inhibitory concentration (IC50) in test [1] and in test [2] were 31.2 nM and 15.1 nM, respectively.

For `Cc1cccn2cc(C(=O)N3CCC4(CC3)CC(=O)c3c(cnn3C(C)(C)C)C4)nc12` [Example 11A-16], the IC50 was determined as 621 nM in test [1] and 190 nM in test [2].

For the compound `CC(C)(C)n1nc(Br)c2c1C(=O)CC1(CCN(C(=O)c3cc(Br)c4[nH]c(=O)[nH]c4c3)CC1)C2` [Example 13A-1, 3-bromo-1′-(7-bromo-2-oxo-2,3-dihydro-1H-benzo[d]imidazole-5-carbonyl)-1-tert-butyl-4,6-dihydrospiro[indazole-5,4′-piperidin]-7(1H)-one], the half-inhibitory concentration (IC50) in test [1] amounted to 264 nM; in test [2], 316 nM.

Turning to `CC(C)n1nc(C#N)c2c1C(=O)CC1(CCN(C(=O)c3ccc4[nH]ncc4c3)CC1)C2` [Example 2A-76], the IC50 in test [1] was 6620 nM; in test [2], 1500 nM.

For the compound `CC(C)n1ncc2c1C(=O)C(C)C1(CCN(C(=O)c3ccc4[nH]ncc4c3)CC1)C2` (racemic) [Example 4A-1, 1′-(1H-indazole-5-carbonyl)-1-isopropyl-6-methyl-4,6-dihydrospiro[indazole-5,4′-piperidin]-7(1H)-one], the IC50 worked out at 399 nM in test [1] and 125 nM in test [2].

`Cn1ncc2c(N)c(C(=O)N3CCC4(CC3)CC(=O)c3c(cnn3C(C)(C)C)C4)cnc21` [Example 2A-59]: the IC50 in test [1] stood at 115 nM; in test [2], 69.2 nM.

With `CC(C)(C)n1ncc2c1C(=O)CC1(CCN(C(=O)c3cccnc3C(N)=O)CC1)C2` [Example 11A-11], the IC50 turned out to be 10600 nM in test [1] and 1450 nM in test [2].
